{"source": "patent US20080267948A1", "about": "“Croos-B Structure Binding Compounds” (priority 2005, published 2008)", "key": {"heat-denatured ovalbumin": {"target": "T1, heat-denatured ovalbumin (Gallus gallus, UniProt P01012)", "T1 construct": "purchased Sigma A5503", "T1 sequence (P01012 1-386)": "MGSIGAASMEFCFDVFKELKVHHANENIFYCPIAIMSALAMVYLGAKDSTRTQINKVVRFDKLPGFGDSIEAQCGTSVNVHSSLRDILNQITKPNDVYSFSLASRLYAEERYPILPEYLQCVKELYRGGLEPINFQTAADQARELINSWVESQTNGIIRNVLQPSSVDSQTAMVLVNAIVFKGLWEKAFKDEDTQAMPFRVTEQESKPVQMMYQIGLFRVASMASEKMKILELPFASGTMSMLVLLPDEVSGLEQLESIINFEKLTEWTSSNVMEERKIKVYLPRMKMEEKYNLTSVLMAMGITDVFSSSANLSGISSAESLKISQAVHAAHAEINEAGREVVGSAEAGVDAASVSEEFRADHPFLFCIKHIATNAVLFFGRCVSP", "experiment": "Thioflavin T fluorescence of ovalbumin and small compounds", "set-up": "species or system chicken", "conditions": "1 mg/ml compound, 1 mg/ml OVA", "outline": "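Heat-denatured ovalbumin at 1 mg/ml in PBS, alone, with 1% v/v DMSO or with 1 mg/ml compound (also heat-denatured after compound addition), mixed 1:9 with 25 μM ThT in 50 mM glycine pH 9.0. Fluorescence read in duplicate at 435 nm excitation, 485 nm emission.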"}, "[1]": {"conditions": "information found on the www, search completed Spring 2006; cited from earlier work"}, "tPA/plasminogen": {"target": "T2, tPA/plasminogen (Homo sapiens, UniProt P00750)", "T2 construct": "purchased Boehringer Ingelheim Actilyse", "T2 sequence (P00750 36-562)": "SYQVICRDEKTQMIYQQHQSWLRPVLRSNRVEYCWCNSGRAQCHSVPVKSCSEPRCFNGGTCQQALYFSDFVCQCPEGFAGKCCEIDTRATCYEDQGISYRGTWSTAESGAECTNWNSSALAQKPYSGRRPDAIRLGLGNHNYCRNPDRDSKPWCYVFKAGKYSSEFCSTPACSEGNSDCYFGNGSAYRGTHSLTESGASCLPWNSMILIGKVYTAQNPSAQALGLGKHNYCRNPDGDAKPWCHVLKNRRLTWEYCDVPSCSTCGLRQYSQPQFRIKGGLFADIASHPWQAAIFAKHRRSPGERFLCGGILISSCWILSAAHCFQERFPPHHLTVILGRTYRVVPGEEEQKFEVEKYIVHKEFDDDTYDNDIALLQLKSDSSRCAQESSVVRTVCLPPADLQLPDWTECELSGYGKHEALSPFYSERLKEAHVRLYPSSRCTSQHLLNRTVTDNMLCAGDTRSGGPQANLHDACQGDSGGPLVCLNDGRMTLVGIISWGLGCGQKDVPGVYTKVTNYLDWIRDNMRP", "experiment": "tPA/plasminogen activation by OVA heated in the presence of compounds (substrate PNAPEP1751)", "type": "biochemical", "conditions": "25 μg/ml OVA, 25 μg/ml compound, […] DMSO", "outline": "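Ovalbumin heated alone in PBS/1% DMSO (positive control) or with compounds at 1 mg/ml, then used 40-fold diluted in a tPA/plasminogen activation assay; buffer without OVA as negative control. Chromogenic substrate conversion read at 405 nm, with compound interference at 405 nm checked; signals related to control.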"}, "ovalbumin": {"target": "T3, ovalbumin (Gallus gallus, UniProt P01012)", "T3 construct": "purchased Sigma A5503", "T3 sequence (P01012 1-386)": "T1 sequence (P01012 1-386)", "experiment": "Transmission electron microscopy of ovalbumin heated in the presence of small compounds", "set-up": "species or system chicken", "conditions": "1 mg/ml ovalbumin heated with 1 mg/ml compound", "outline": "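Ovalbumin at 1 mg/ml was applied to carbon-coated Formvar copper grids, washed with PBS and water, then stained 2 min in 2% methylcellulose with 0.4% uranyl acetate, pH 4. Grids were dried and imaged by TEM at 80 kV.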"}, "Aβ": {"target": "T4, Aβ (Homo sapiens, UniProt P05067, E693Q)", "T4 construct": "Lyophilized human amyloid-β(1-40) with E22Q mutation ‘Dutch type’; purchased Peptide facility, Dutch Cancer Institute, Amsterdam; host or cells: synthetic peptide", "experiment": "Binding of Aβ from solution to immobilized small compounds", "conditions": "Greiner Microlon, coat 100 μg/ml, Aβ 100 μg/ml", "procedure": "To test the ability of the twelve selected compounds (see Table 7) to bind to misfolded proteins, […] Greiner Microlon high binding plates, Nunc amino Immobilizer plates and Nunc Maxisorp plates. Compounds were coated in 100 mM NaHCO3 pH 9.6, 50 μl/well, 1 h at room temperature with agitation. As a control, wells were coated with buffer only. After blocking of the plates, wells were overlayed with solutions of 0.1/1/10 μg/ml Hb-AGE or 10/100 μg/ml Aβ, in binding buffer (PBS/0.1% Tween20). After washing, binding of Hb-AGE was assessed by overlaying wells with 1 μg/ml hybridoma antibody 4B5, which binds to glycations(^2), followed by RAMPO. Binding of Aβ was visualized using 500× diluted anti-Aβ antibodies (mouse antibody beta-amyloid Clone 6F/3D #M0872, lot 00003503, DAKOCytomation; β-amyloid (H-43) SC-9129, 200 μg/ml rabbit polyclonal IgG, Santa Cruz Biotechnology) and RAMPO/SWARPO in a 1:1 ratio. Finally, wells were overlayed with OPD/H2O2 solution, and H2SO4, before absorbance readings at 490 nm."}, "[2]": {"target": "T5, heat-denatured misfolded ovalbumin (DOVA) (Gallus gallus, UniProt P01012)", "T5 construct": "purchased Sigma A5503", "T5 sequence (P01012 2-386 limits assumed)": "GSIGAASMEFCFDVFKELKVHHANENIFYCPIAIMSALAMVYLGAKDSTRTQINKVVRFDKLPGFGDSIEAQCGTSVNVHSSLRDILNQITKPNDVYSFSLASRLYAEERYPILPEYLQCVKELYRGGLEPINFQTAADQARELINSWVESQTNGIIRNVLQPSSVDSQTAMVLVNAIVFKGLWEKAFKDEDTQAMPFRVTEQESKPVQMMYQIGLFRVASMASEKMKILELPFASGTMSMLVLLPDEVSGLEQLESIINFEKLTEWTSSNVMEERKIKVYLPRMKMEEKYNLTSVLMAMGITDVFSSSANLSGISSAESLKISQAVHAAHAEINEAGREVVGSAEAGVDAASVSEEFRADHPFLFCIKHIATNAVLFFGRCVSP", "experiment": "ELISA binding of tPA to immobilized misfolded ovalbumin after pre-incubation with compounds", "set-up": "species or system chicken", "conditions": "misfolded OVA first overlayed with compound (concentration series), then tPA", "procedure": "Compounds were now diluted 10× in PBS/0.1% Tween20 (500 μg/ml compound). […] With this approach a further selection of the compounds was achieved. Now, compounds that at least interact with HB-AGE are selected. With the selection, similar binding assays are performed with misfolded OVA and Aβ. Finally, concentration series of the selected compounds are used in the binding studies."}, "[3]": {"system": "misfolded proteins (Hb-AGE, Aβ)", "experiment": "Binding of misfolded proteins from solution to immobilized small compounds (overall)", "conditions": "compounds coated on ELISA plates, Hb-AGE or Aβ in solution", "procedure": "To test the ability of the twelve selected compounds (see Table 7) to bind to misfolded proteins, the compounds were immobilized at 10/100/1000 μg/ml in the wells of 96-wells Greiner Microlon high binding plates, Nunc amino Immobilizer plates and Nunc Maxisorp plates. Compounds were coated in 100 mM NaHCO3 pH 9.6, 50 μl/well, 1 h at room temperature with agitation. As a control, wells were coated with buffer only. After blocking of the plates, wells were overlayed with solutions of 0.1/1/10 μg/ml Hb-AGE or 10/100 μg/ml Aβ, in binding buffer (PBS/0.1% Tween20). After washing, binding of Hb-AGE was assessed by overlaying wells with 1 μg/ml hybridoma antibody 4B5, which binds to glycations(^2), followed by RAMPO. Binding of Aβ was visualized using 500× diluted anti-Aβ antibodies (mouse antibody beta-amyloid Clone 6F/3D #M0872, lot 00003503, DAKOCytomation; β-amyloid (H-43) SC-9129, 200 μg/ml rabbit polyclonal IgG, Santa Cruz Biotechnology) and RAMPO/SWARPO in a 1:1 ratio. Finally, wells were overlayed with OPD/H2O2 solution, and H2SO4, before absorbance readings at 490 nm."}, "tPA": {"target": "tPA (Homo sapiens, UniProt P00750)", "sequence (P00750 36-562)": "as the sequence (P00750 36-562) above", "experiment": "Plasminogen activation assay (tPA-mediated conversion of Plg to plasmin)", "type": "biochemical", "set-up": "purchased Boehringer-Ingelheim Actilyse", "conditions": "100 μg ml^−1 protein or peptide, 400 pM tPA, substrate S-2251", "procedure": "Plasmin (Plm) activity was assayed as described^4. Peptides and proteins that were tested for their stimulatory ability were used at 100 μg ml^−1, unless stated otherwise. […] Chromogenic substrate S-2251 (Chromogenix, Instrumentation Laboratory SpA, Milano, Italy) was used to measure Pls activity.\nPurification of β2-glycoprotein I (β2GPI) was performed according to established methods^15,16. Recombinant human β2GPI was made using insect cells and purified as described^15. Plasma derived β2GPI as used in a factor XII ELISA, the Plg-activation assay and in the anti-phospholipid syndrome antibody ELISA (see below), was purified from fresh human plasma as described^16. […]\nSolutions of fibrin peptide FP6, NH2—IDIKIR-COOH (Peptide facility, Dutch Cancer Institute, Amsterdam, the Netherlands) were prepared in various ways. […] Separate samples were prepared similarly and analyzed by electron spray ionization mass spectrometry (ESI-MS) to obtain information on the distribution of the peptide over putatively present oligomers (Dr C. Versluis, Department of Biomolecular Mass Spectrometry, Bijvoet Center for Biomolecular Research, Utrecht University, Utrecht, The Netherlands). […] Micrographs were recorded at 80 kV, at suitable magnifications on a JEM-1200EX electron microscope (JEOL, Japan)."}}, "note": "Entries after “also recorded” stand apart in the source; their conditions may differ."}
{"molecule": "COc1cc2c(C=O)c3c4c(cc(OC)c(OC)c4c2cc1OC)CCN3C", "note": "[compound 214, dehydroglaucine derivative]", "values": [{"measurement": "influence on Thioflavin T fluorescence with misfolded OVA", "setting": "heat-denatured ovalbumin", "value": "Inhibition of Thioflavin T fluorescence with misfolded OVA"}, {"measurement": "Use or activity in vitro/in vivo", "setting": "[1]", "value": "inhibitory effect on lipopolysaccharide (LPS)-induced; also recorded: protection of plants from invasion by micro-organisms; also recorded: antimicrobial activity; also recorded: decrease in the blood pressure after applying intravenously; also recorded: bronchoconstrictor effect; also recorded: inhibitory action on the central nervous system"}, {"measurement": "influence on tPA/plasminogen activation by OVA pre-heated in the presence of compound", "setting": "tPA/plasminogen", "value": "Inhibition of tPA/plasminogen activation by OVA pre-heated"}, {"measurement": "appearance of ovalbumin heated in the presence of compound on TEM image", "setting": "ovalbumin", "value": "Smaller but more dense aggregates than in Control"}, {"measurement": "Signal (a.u.)", "setting": "Aβ", "value": 0.14, "unit": "a.u."}, {"measurement": "influence on tPA binding to immobilized misfolded OVA", "setting": "[2]", "value": "Stimulated tPA binding to immobilized misfolded protein"}, {"measurement": "capture of misfolded protein from solution by immobilized compound", "setting": "[3]", "value": "Capture of misfolded protein from solution"}]}
{"molecule": "H-IDIKIR-OH [FP6, reference compound]", "values": [{"measurement": "stimulation of tPA-mediated conversion of Plg to plasmin", "setting": "tPA", "value": "activates tPA in the chromogenic plasmin activity assay"}]}
